Measurements taken from patent publication US20070128217A1 (priority 2003, published 2007).

How the values were obtained:
[1] = system: antibodies in sera from SARS patients (sera 1a, 1b, 2, 6, 37, 62, London, SARS-yellow, SARS-green); format: binding, human; set-up: Binding of serum 6 to linear peptides of protein X1 of SARS-CoV Urbani / Binding of serum 37 to linear peptides of protein X1 of SARS-CoV Urbani / Binding of serum 6 to looped/cyclic peptide (PEPSCAN-ELISA) / Binding of serum 37 to looped/cyclic peptide (PEPSCAN-ELISA) / Binding of serum 37 to looped/cyclic peptides of protein X1 of SARS-CoV Urbani / Binding of serum 6 to linear peptides of protein X2 / Binding of serum 37 to linear peptides of protein X2 / Binding of serum 37 to looped/cyclic peptides of protein X2 of SARS-CoV Urbani / Binding of serum 6 to linear peptides of protein M of SARS-CoV Urbani / Binding of serum 37 to linear peptides of protein M of SARS-CoV Urbani / Binding of serum 6 to looped/cyclic peptides of protein M of SARS-CoV Urbani / Binding of serum 37 to looped/cyclic peptides of protein M of SARS-CoV Urbani / Binding of serum 6 to linear peptides of protein X3 of SARS-CoV Urbani / Binding of serum 37 to linear peptides of protein X3 of SARS-CoV Urbani / Binding of serum 37 to looped/cyclic peptides of protein X3 of SARS-CoV Urbani / Binding of serum 6 to linear peptides of protein X4 of SARS-CoV Urbani / Binding of serum 37 to linear peptides of protein X4 of SARS-CoV Urbani / Binding of serum 37 to looped/cyclic peptides of protein X4 of SARS-CoV Urbani / Binding of serum 6 to linear peptides of protein X5 of SARS-CoV Urbani / Binding of serum 37 to linear peptides of protein X5 of SARS-CoV Urbani / Binding of serum 37 to looped/cyclic peptides of protein X5 of SARS-CoV Urbani / Binding of serum 6 to linear peptides of protein N of SARS-CoV Urbani / Binding of serum 37 to linear peptides of protein N of SARS-CoV Urbani / Binding of serum 6 to linear peptide (PEPSCAN-ELISA) / Binding of serum 1a to looped/cyclic peptides of protein N of SARS-CoV Urbani / Binding of serum 1b to looped/cyclic peptides of protein N of SARS-CoV Urbani / Binding of serum 2 to looped/cyclic peptides of protein N of SARS-CoV Urbani / Binding of serum 6 to looped/cyclic peptides of protein N of SARS-CoV Urbani / Binding of serum 37 to looped/cyclic peptides of protein N of SARS-CoV Urbani / Binding of serum 62 to looped/cyclic peptides of protein N of SARS-CoV Urbani / Binding of serum London to looped/cyclic peptides of protein N of SARS-CoV Urbani / Binding of serum SARS-green to looped/cyclic peptides of protein N of SARS-CoV Urbani: unit not given here
[2] = system: control sera (pooled serum of ten healthy LUMC hospital workers; commercial negative donor pooled serum from the Dutch bloodbank); format: binding, human; set-up: Binding of Control serum LUMC to linear peptides / Binding of Control serum Blood-bank to linear peptides / Binding of Control serum LUMC to looped peptides / Binding of Control Serum Blood-Bank to Looped peptides / Binding of Control serum LUMC to linear peptides of the protein M of SARS-CoV Urbani / Binding of Control serum Blood-bank to linear peptides of the protein M of SARS-CoV Urbani / Binding of Control serum LUMC to looped peptides of the protein M of SARS-CoV Urbani / Binding of Control Serum Blood-Bank to Looped peptides of the protein M of SARS-CoV Urbani: unit not given here
[3] = system: rabbit serum obtained by immunizing a rabbit with the SARS-CoV strain Frankfurt 1; format: binding; set-up: Binding of a rabbit serum to linear peptides / Binding of a rabbit serum to looped peptides / Rabbit serum linear peptides / Rabbit serum looped peptides / Binding of a rabbit serum to linear peptides of protein N of SARS-CoV Urbani (Rabbit serum linear peptides) / Binding of a rabbit serum to looped/cyclic peptides of protein N of SARS-CoV Urbani (Rabbit serum looped peptides): unit not given here
[4] = system: recombinant human anti-SARS-CoV antibody 03-018; format: binding; set-up: Binding of antibody 03-018 to linear peptides of the N protein of SARS-CoV Urbani / Binding of antibody 03-018 to looped/cyclic peptides of the N protein of SARS-CoV Urbani: unit not given here

Sequence	Binding of serum 1a to linear peptides of protein N of SARS-CoV Urbani [1]	Binding of serum 1a to looped/cyclic peptides of protein N of SARS-CoV Urbani [1]	Binding of serum 1b to linear peptides of protein N of SARS-CoV Urbani [1]	Binding of serum 1b to looped/cyclic peptides of protein N of SARS-CoV Urbani [1]	Binding of serum 2 to linear peptides of protein N of SARS-CoV Urbani [1]	Binding of serum 2 to looped/cyclic peptides of protein N of SARS-CoV Urbani [1]	Binding of serum 6 to linear peptides of protein N of SARS-CoV Urbani [1]	Binding of serum 6 to looped/cyclic peptides of protein N of SARS-CoV Urbani [1]	Binding of serum 37 to linear peptides of protein N of SARS-CoV Urbani [1]	Binding of serum 37 to looped/cyclic peptides of protein N of SARS-CoV Urbani [1]	Binding of serum 62 to linear peptides of protein N of SARS-CoV Urbani [1]	Binding of serum 62 to looped/cyclic peptides of protein N of SARS-CoV Urbani [1]	Binding of a rabbit serum to linear peptides of protein N of SARS-CoV Urbani (Rabbit serum linear peptides) [3]	Binding of a rabbit serum to looped/cyclic peptides of protein N of SARS-CoV Urbani (Rabbit serum looped peptides) [3]	Binding of antibody 03-018 to linear peptides of the N protein of SARS-CoV Urbani [4]	Binding of antibody 03-018 to looped/cyclic peptides of the N protein of SARS-CoV Urbani [4]	Binding of Control Serum Blood-Bank to Looped peptides [2]	Binding of Control serum Blood-bank to linear peptides [2]	Binding of Control serum LUMC to linear peptides [2]	Binding of Control serum LUMC to looped peptides [2]	also measured
RIGMEVTPSGTWLTY	0.2	0.4	0.1	0.2	0.1	0.5	0.1	0.3	0.4	0.7	0.4	0.8	0.0	0.5	0.1	0.2					Binding of serum London to linear peptides of protein N of SARS-CoV Urbani [1]: 0.3; Binding of serum London to looped/cyclic peptides of protein N of SARS-CoV Urbani [1]: 0.6; Binding of serum SARS-green to linear peptides of protein N of SARS-CoV Urbani [1]: 0.5; Binding of serum SARS-green to looped/cyclic peptides of protein N of SARS-CoV Urbani [1]: 0.5; Binding of serum SARS-yellow to linear peptides of protein N of SARS-CoV Urbani [1]: 0.9; Binding of serum SARS-yellow to looped/cyclic peptides of protein N of SARS-CoV Urbani [1]: 0.5; Control Serum Blood-Bank Looped peptides [2]: 0.8; Control serum Blood-bank linear peptides [2]: 0.5; Control serum LUMC linear peptides [2]: 0.5; Control serum LUMC looped peptides [2]: 0.7
QSNQRSAPRITFGGP	0.2	0.5	0.1	0.3	0.2	0.6	0.1	0.4	0.7	0.8	0.7	0.7					0.7	0.6	0.5	0.9	Binding of serum London to linear peptides of protein N of SARS-CoV Urbani [1]: 0.4; Binding of serum London to looped/cyclic peptides of protein N of SARS-CoV Urbani [1]: 0.5; Binding of serum SARS-green to linear peptides of protein N of SARS-CoV Urbani [1]: 0.5; Binding of serum SARS-green to looped/cyclic peptides of protein N of SARS-CoV Urbani [1]: 0.5; Binding of serum SARS-yellow to linear peptides of protein N of SARS-CoV Urbani [1]: 0.5; Binding of serum SARS-yellow to looped/cyclic peptides of protein N of SARS-CoV Urbani [1]: 0.7; Recognition of the peptide by the rabbit serum [3]: also recognized; Recognition of the peptide by antibody 03-018 [4]: recognized
DNNQNGGRNGARPKQ	0.2	0.4	0.1	0.2	0.3	0.4	0.1	0.3	0.6	0.6	0.7	0.4	0.1	0.4	0.2	0.3	0.7	0.8	0.6	0.6	Binding of serum London to linear peptides of protein N of SARS-CoV Urbani [1]: 0.5; Binding of serum London to looped/cyclic peptides of protein N of SARS-CoV Urbani [1]: 0.4; Binding of serum SARS-green to linear peptides of protein N of SARS-CoV Urbani [1]: 0.6; Binding of serum SARS-green to looped/cyclic peptides of protein N of SARS-CoV Urbani [1]: 0.4; Binding of serum SARS-yellow to linear peptides of protein N of SARS-CoV Urbani [1]: 0.6; Binding of serum SARS-yellow to looped/cyclic peptides of protein N of SARS-CoV Urbani [1]: 0.4
KRTATKQYNVTQAFG															0.1	0.2	0.6	0.7	0.8	0.6	Recognition of the peptide by the rabbit serum [3]: recognized
ASGGGETALALLLLD													0.1	0.4	0.1	0.2	1.3	0.8	0.9	1.3	
RMASGGGETALALLL													0.2	0.4	0.1	0.3	0.8	0.6	0.5	0.8	
PQGTTLPKGFYAEGS													0.1	0.5	0.1	0.2	0.6	0.7	0.6	0.6	
PARMASGGGETALAL													0.2	0.7	0.1	0.3	0.7	1.0	0.8	0.9	
MASGGGETALALLLL													0.2	1.1	0.1	0.3	0.7	0.7	0.6	0.9	
